Each structure is given as a SMILES string.

Usually IC50 stands for the concentration that inhibits the measured activity by half. Lower therefore signals higher potency.

One experiment addresses AMPA receptors. Put plainly: AMPA receptor binding (Honore et al.). Conditions: Table 1.
The target in experiment [1] is T1, glycine site of the NMDA receptor (Rattus norvegicus, UniProt P35439).
T1 construct: from tissue
Kind of experiment: glycine site of NMDA receptor binding (Jones et al.). The settings on record: Table 1.

Experiment [2] deals with kainate site (non-NMDA receptor). Kind of experiment: kainate site binding (London and Coyle). The settings on record: Table 1.
Another experiment concerns mice. Kind of experiment: maximal electroshock time course in mice, with and without probenecid pretreatment. It is filed as in vivo. Here is the method:
FIG. 1 plots maximal electroshock time course with Compound 1 of the invention, with and without probenecid pretreatment in mice.
The graph is the percent of mice protected versus the time in minutes. The solid circle (.circle-solid.) is the compound from Example 1. In a separate experiment the solid square (.box-solid.) the compound from Example 1 (10 mg/kg, IV) was given to mice (n=5) pretreated with probenecid 30 minutes before the compound.

For `Cc1c([N+](=O)[O-])cc2[nH]c(=O)c(=O)n3c2c1CN(C)C(=O)C3c1ccccc1` (centres unmarked) [Example 2, 6,8-Dimethyl-5-nitro-10-phenyl-7,8-dihdro-3H-3,8,10a-triaza-cyclohepta(de)morphthalene-1,2,9-trione], the IC50 at AMPA receptors worked out at 4500 nM; in experiment [1], 600 nM. In addition, the “IC50 KA” value in experiment [2] amounted to 4.9 µM.
For the compound `Cc1c([N+](=O)[O-])cc2[nH]c(=O)c(=O)n3c2c1CN(C)C(=O)C3` [Example 1, 6-8-Dimethyl-5-nitro-7,8-dihydro-3H-d,8,10a-triaza-cyclo-hepta[de]naphthalene-1,2,9-trione], the IC50 on AMPA receptors is 850 nM; in experiment [1], 200 nM. Also, the “IC50 KA” value in experiment [2] is 1.55 µM. In addition, in the experiment on mice (10 mg/kg IV, n=5 mice, probenecid 30 minutes before the compound), the “effect of probenecid pretreatment on protection against maximal electroshock” value was “positively modulated by ion transporter substrates such as probenecid”. The “protection against maximal electroshock (in words)” value with mice (30 mg/kg IV, 5 mice, percent of mice protected versus time plotted in FIG. 1 only) is reported as “indicative of the in vivo potency”.

The values are drawn from patent US6063774A, “Tricyclic quinoxaline derivatives as neuroprotective agents” (Warner-Lambert Company, priority 1998, dated 2000).
